Read-outs that look alike come from different tables or passages of the source.
How the values were obtained:
DENV-2 NGC = experiment: Antiviral activity against DENV-2 NGC in Vero-B cells (viral RNA load by RT-qPCR); format: cell-based, Dengue virus; conditions: DENV-2 in Vero-B cells, inhibition of viral RNA replication by 50% (Table 3)
[1] = test system: DENV-1 Djibouti strain D1/H/IMTSSA/98/606; experiment: Antiviral activity against DENV-1 in Vero-B cells (viral RNA load by RT-qPCR); format: cell-based, Dengue virus
[2] = test system: DENV-3 strain H87 prototype; experiment: Antiviral activity against DENV-3 in Vero-B cells (viral RNA load by RT-qPCR); format: cell-based, Dengue virus
[3] = test system: DENV-4 strain Dak HD 34 460; experiment: Antiviral activity against DENV-4 in Vero-B cells (viral RNA load by RT-qPCR); format: cell-based, Dengue virus; conditions: Dengue virus, DENV4, Vero B
in vitro = conditions: African green monkey; for CC50 at 4 days: uninfected quiescent Vero-B cells

Compound: COc1cc(NC(C(=O)c2c[nH]c3ccccc23)c2ccc(OC)nc2)cc(OC)c1 (stereo not drawn) [CPD-335]
- EC50 (DENV-2 NGC; Dengue virus, DENV2, Vero B): 20 nM
- EC50 ([1]; Dengue virus, DENV1, Vero B): 320 nM
- EC50 ([2]; Dengue virus, DENV3, Vero B): 420 nM
- EC50 [3]: 2380 nM
- CC50 at 4 days (in vitro): 18000 nM

Compound: COc1cccc(NC(C(=O)c2c[nH]c3ccccc23)c2cnc(OC)nc2)c1 (stereo not drawn) [CPD-240]
- EC50 (DENV-2 NGC; Dengue virus, DENV2, Vero B): 110 nM
- EC50 ([1]; Dengue virus, DENV1, Vero B): 1200 nM
- EC50 ([2]; Dengue virus, DENV3, Vero B): 2380 nM
- EC50 [3]: 8730 nM
- CC50 at 4 days (in vitro): 63000 nM

Compound: COc1cccc(NC(C(=O)c2c[nH]c3c(C)cccc23)c2cc3ccccn3n2)c1 (stereo not drawn) [CPD-329]
- EC50 (DENV-2 NGC; Dengue virus, DENV2, Vero B): 10 nM
- EC50 ([1]; Dengue virus, DENV1, Vero B): 270 nM
- EC50 ([2]; Dengue virus, DENV3, Vero B): 320 nM
- EC50 [3]: 2920 nM
- CC50 at 4 days (in vitro): 41000 nM

Compound: COc1cncc(NC(C(=O)c2c[nH]c3ccccc23)c2ccccc2)c1 (single isomer, unassigned) [CPD-299]
- EC50 (DENV-2 NGC): 20 nM
- EC50 [1]: 500 nM
- EC50 [2]: 780 nM
- EC50 [3]: 3650 nM
- CC50 at 4 days (in vitro): 62000 nM

Compound: COc1cccc(NC(C(=O)c2cn(CCO)c3cc(F)ccc23)c2ccccc2)c1 (stereo not drawn) [CPD-245]
- EC50 (DENV-2 NGC; Dengue virus, DENV2, Vero B): 80 nM
- EC50 ([1]; Dengue virus, DENV1, Vero B): 700 nM
- EC50 ([2]; Dengue virus, DENV3, Vero B): 2380 nM
- EC50 [3]: 3010 nM
- CC50 (in vitro): 16000 nM

Compound: COc1cccc(NC(C(=O)c2c[nH]c3ccccc23)c2cc(C)on2)c1 (stereo not drawn) [CPD-025]
- EC50 (DENV-2 NGC; Dengue virus, DENV2, Vero B): 680 nM
- EC50 ([1]; Dengue virus, DENV1, Vero B): 7890 nM
- EC50 ([2]; Dengue virus, DENV3, Vero B): 13000 nM
- EC50 [3]: 11800 nM
- CC50 at 4 days (in vitro): 48000 nM

Compound: COc1cccc(NC(C(=O)c2c[nH]c3ccccc23)c2ccc(C#N)nc2)c1 (stereo not drawn) [CPD-314]
- EC50 (DENV-2 NGC; Dengue virus, DENV2, Vero B): 210 nM
- EC50 ([1]; Dengue virus, DENV1, Vero B): 1700 nM
- EC50 ([2]; Dengue virus, DENV3, Vero B): 2800 nM
- EC50 [3]: 8760 nM
- CC50 at 4 days (in vitro): 50000 nM

Compound: COc1cc(NC(C(=O)c2cn(CCCO)c3ccc(F)cc23)c2ccccc2)cc(OC)c1 (stereo not drawn) [CPD-156]
- EC50 (DENV-2 NGC; Dengue virus, DENV2, Vero B): 20 nM
- EC50 ([1]; Dengue virus, DENV1, Vero B): 610 nM
- EC50 ([2]; Dengue virus, DENV3, Vero B): 2120 nM
- EC50 [3]: 3370 nM
- CC50 (in vitro): 11000 nM

Compound: CN(C)C(=O)c1cccc(NC(C(=O)c2c[nH]c3ccccc23)c2ccccc2)c1 (stereo not drawn) [CPD-051]
- EC50 (DENV-2 NGC; Dengue virus, DENV2, Vero B): 2470 nM
- EC50 ([1]; Dengue virus, DENV1, Vero B): 5760 nM
- EC50 ([2]; Dengue virus, DENV3, Vero B): 24200 nM
- EC50 [3]: 32600 nM
- CC50 at 4 days (in vitro): > 125000 nM

Compound: COc1cc(NC(C(=O)c2c[nH]c3c(C)cccc23)c2ccccc2)cc(OCCO)c1 (stereo not drawn) [CPD-331]
- EC50 (DENV-2 NGC; Dengue virus, DENV2, Vero B): 20 nM
- EC50 ([1]; Dengue virus, DENV1, Vero B): 390 nM
- EC50 ([2]; Dengue virus, DENV3, Vero B): 390 nM
- EC50 [3]: 3280 nM
- CC50 at 4 days (in vitro): 14000 nM

Compound: COc1cncc(NC(C(=O)c2c[nH]c3cc(F)ccc23)c2ccccc2)c1 (stereo not drawn) [CPD-157]
- EC50 (DENV-2 NGC; Dengue virus, DENV2, Vero B): 50 nM
- EC50 ([1]; Dengue virus, DENV1, Vero B): 1310 nM
- EC50 ([2]; Dengue virus, DENV3, Vero B): 850 nM
- EC50 [3]: 5100 nM
- CC50 at 4 days (in vitro): 15000 nM

Compound: COc1cccc(NC(C(=O)c2c[nH]c3ccccc23)c2cn3ncccc3n2)c1 (stereo not drawn) [CPD-238]
- EC50 (DENV-2 NGC; Dengue virus, DENV2, Vero B): 40 nM
- EC50 ([1]; Dengue virus, DENV1, Vero B): 540 nM
- EC50 ([2]; Dengue virus, DENV3, Vero B): 1650 nM
- EC50 [3]: 10200 nM
- CC50 at 4 days (in vitro): > 125000 nM

Compound: COc1cc(NC(C(=O)c2nn(C)c3ccccc23)c2ccccc2)cc(OC)c1 (stereo not drawn) [CPD-265]
- EC50 (DENV-2 NGC; Dengue virus, DENV2, Vero B): 20 nM
- EC50 ([1]; Dengue virus, DENV1, Vero B): 290 nM
- EC50 ([2]; Dengue virus, DENV3, Vero B): 1640 nM
- EC50 [3]: 4880 nM
- CC50 at 4 days (in vitro): > 124000 nM

Compound: COc1cccc(NC(C(=O)c2c[nH]c3ccc(F)cc23)c2cnc(OC)cn2)c1 (stereo not drawn) [CPD-295]
- EC50 (DENV-2 NGC; Dengue virus, DENV2, Vero B): 30 nM
- EC50 ([1]; Dengue virus, DENV1, Vero B): 340 nM
- EC50 ([2]; Dengue virus, DENV3, Vero B): 1380 nM
- EC50 [3]: 6290 nM
- CC50 at 4 days (in vitro): 18000 nM

Compound: COc1cc(CO)cc(NC(C(=O)c2c[nH]c3ccccc23)c2ccc(OC)nc2)c1 (stereo not drawn) [CPD-283]
- EC50 (DENV-2 NGC; Dengue virus, DENV2, Vero B): 170 nM
- EC50 ([1]; Dengue virus, DENV1, Vero B): 2830 nM
- EC50 ([2]; Dengue virus, DENV3, Vero B): 7140 nM
- EC50 [3]: 7890 nM
- CC50 at 4 days (in vitro): 56000 nM

Compound: COc1cccc(NC(C(=O)c2c[nH]c3ccccc23)c2cnc(OC)cn2)c1 (stereo not drawn) [CPD-249]
- EC50 (DENV-2 NGC; Dengue virus, DENV2, Vero B): 100 nM
- EC50 ([1]; Dengue virus, DENV1, Vero B): 1130 nM
- EC50 ([2]; Dengue virus, DENV3, Vero B): 4570 nM
- EC50 [3]: 1980 nM
- CC50 at 4 days (in vitro): 53000 nM

Compound: COc1cccc(NC(C(=O)c2c[nH]c3ccc(Cl)cc23)c2ccccc2)c1 (stereo not drawn) [CPD-086]
- EC50 (DENV-2 NGC; Dengue virus, DENV2, Vero B): 40 nM
- EC50 ([1]; Dengue virus, DENV1, Vero B): 970 nM
- EC50 ([2]; Dengue virus, DENV3, Vero B): 1050 nM
- EC50 [3]: 3570 nM
- CC50 at 4 days (in vitro): 12000 nM

Compound: COc1cccc(NC(C(=O)c2c[nH]c3ccccc23)c2cccnn2)c1 (stereo not drawn) [CPD-317]
- EC50 (DENV-2 NGC; Dengue virus, DENV2, Vero B): 580 nM
- EC50 ([1]; Dengue virus, DENV1, Vero B): 4130 nM
- EC50 ([2]; Dengue virus, DENV3, Vero B): 12800 nM
- EC50 [3]: 10600 nM
- CC50 at 4 days (in vitro): 88000 nM
